Data reported in patent US8501750B2, “Heterocyclic compound and use thereof” (Takeda Pharmaceutical Company Limited, priority 2007, dated 2013).

Key:
AT1 receptor = AT1 receptor (Homo sapiens (Human), UniProt P30556); assay: AT1 receptor binding inhibitory action
PPARγ = PPARγ (Homo sapiens (Human), UniProt P37231); assay: PPARγ activating action (luciferase reporter in PPARγ:RXRα:4ERPP/CHO-K1 cells); assay type: cell-based; conditions: CHO-K1, 24 h; test compound 1 μM; luciferase activity relative to control compound X (1 μM) = 100%, non-administration group = 0%; read-out: PPARγ activating action (activation % (1 μM))
Sequence of PPARγ (P37231 29-505): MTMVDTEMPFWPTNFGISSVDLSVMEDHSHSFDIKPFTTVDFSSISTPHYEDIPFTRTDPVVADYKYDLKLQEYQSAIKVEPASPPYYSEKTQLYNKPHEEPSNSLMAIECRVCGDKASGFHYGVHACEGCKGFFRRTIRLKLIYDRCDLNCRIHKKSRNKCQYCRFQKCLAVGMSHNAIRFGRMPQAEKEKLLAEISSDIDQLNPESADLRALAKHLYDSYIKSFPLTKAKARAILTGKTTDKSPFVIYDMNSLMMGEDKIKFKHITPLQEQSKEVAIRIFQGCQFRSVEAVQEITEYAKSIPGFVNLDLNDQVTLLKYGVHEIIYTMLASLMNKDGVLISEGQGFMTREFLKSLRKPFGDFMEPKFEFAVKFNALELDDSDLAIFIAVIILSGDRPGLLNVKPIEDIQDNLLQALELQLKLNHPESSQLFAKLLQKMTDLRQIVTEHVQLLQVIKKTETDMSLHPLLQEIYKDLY
Sequence of PPARγ (P19793 whole entry partner): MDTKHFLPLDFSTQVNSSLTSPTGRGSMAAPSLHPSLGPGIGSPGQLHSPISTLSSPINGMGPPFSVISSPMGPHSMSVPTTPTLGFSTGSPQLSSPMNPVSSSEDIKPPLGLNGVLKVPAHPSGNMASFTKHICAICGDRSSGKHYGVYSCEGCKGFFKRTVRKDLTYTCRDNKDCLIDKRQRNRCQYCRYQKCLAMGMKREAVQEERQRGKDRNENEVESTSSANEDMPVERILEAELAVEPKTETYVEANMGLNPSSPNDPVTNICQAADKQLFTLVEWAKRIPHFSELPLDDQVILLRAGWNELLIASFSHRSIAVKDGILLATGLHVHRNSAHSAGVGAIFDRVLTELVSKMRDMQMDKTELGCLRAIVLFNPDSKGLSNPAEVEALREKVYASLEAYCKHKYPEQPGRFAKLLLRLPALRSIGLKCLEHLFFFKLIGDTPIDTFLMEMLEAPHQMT
How it was run: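 Stably transfected CHO-K1 cells carrying PPARγ:RXRα and a 4ERPP luciferase reporter, selected with Geneticin and Zeocin, were exposed to compound for 1 day at 37 °C. The medium was Ham's F12 with 0.1% fatty acid-free BSA. Luciferase activity was then measured as the read-out.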

Sequence of AT1 receptor (P30556 whole entry): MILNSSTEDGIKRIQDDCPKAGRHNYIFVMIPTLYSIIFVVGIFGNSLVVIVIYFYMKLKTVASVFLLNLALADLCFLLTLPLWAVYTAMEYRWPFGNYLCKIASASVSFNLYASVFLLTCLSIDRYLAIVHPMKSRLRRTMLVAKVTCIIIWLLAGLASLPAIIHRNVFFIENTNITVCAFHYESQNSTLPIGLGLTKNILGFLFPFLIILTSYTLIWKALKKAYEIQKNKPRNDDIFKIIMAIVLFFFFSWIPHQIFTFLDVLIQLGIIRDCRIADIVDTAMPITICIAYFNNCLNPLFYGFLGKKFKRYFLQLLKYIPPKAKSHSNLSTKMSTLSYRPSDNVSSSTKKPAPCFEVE

Row | Structure (SMILES) | IC50 (AT1 receptor) [nM] | activation at 1 µM (PPARγ) [%]
1 | CCc1cc2c(=O)n(CC(=NOC)c3ccccc3)c(=O)n(Cc3ccc(-c4ccccc4-c4noc(=O)[nH]4)cc3)c2s1 [Ex. 215, 6-ethyl-3-[2-(methoxyimino)-2-phenylethyl]-1-{[2′-(5-oxo-4,5-dihydro-1,2,4-oxadiazol-3-yl)biphenyl-4-yl]methyl}thieno[2,3-d]pyrimidine-2,4(1H,3H)-dione] | 1.3 | 27
2 | CCc1cc2c(=O)n(CC(=O)c3cccs3)c(=O)n(Cc3ccc(-c4ccccc4-c4noc(=O)[nH]4)cc3)c2s1 [Ex. 221, 6-ethyl-1-{[2′-(5-oxo-4,5-dihydro-1,2,4-oxadiazol-3-yl)biphenyl-4-yl]methyl}-3-[2-oxo-2-(2-thienyl)ethyl]thieno[2,3-d]pyrimidine-2,4(1H,3H)-dione] | 1.4 | 47
3 | CCc1cc2c(=O)n(CC(=O)c3sccc3Br)c(=O)n(Cc3ccc(-c4ccccc4-c4noc(=O)[nH]4)cc3)c2s1 [Ex. 222, 3-[2-(3-bromo-2-thienyl)-2-oxoethyl]-6-ethyl-1-{[2′-(5-oxo-4,5-dihydro-1,2,4-oxadiazol-3-yl)biphenyl-4-yl]methyl}thieno[2,3-d]pyrimidine-2,4(1H,3H)-dione] | 1.9 | 32

The next lines start with the values.

Row | IC50 (AT1 receptor) [nM] | activation at 1 µM (PPARγ) [%] | Structure (SMILES)
4 | 1.6 | 39 | CCc1cc2c(=O)n(CC(C)(C)c3ccccc3)c(=O)n(Cc3ccc(-c4ccccc4-c4noc(=O)[nH]4)cc3)c2s1 [Ex. 225, 6-ethyl-3-(2-methyl-2-phenylpropyl)-1-{[2′-(5-oxo-4,5-dihydro-1,2,4-oxadiazol-3-yl)biphenyl-4-yl]methyl}thieno[2,3-d]pyrimidine-2,4(1H,3H)-dione]
5 | 0.34 | 65 | CCc1cc2c(=O)n(CCc3ccc(F)cc3)c(=O)n(Cc3ccc(-c4ccccc4-c4noc(=O)[nH]4)cc3)c2s1 [Example 56, 6-ethyl-3-[2-(4-fluorophenyl)ethyl]-1-{[2′-(5-oxo-4,5-dihydro-1,2,4-oxadiazol-3-yl)biphenyl-4-yl]methyl}thieno[2,3-d]pyrimidine-2,4(1H,3H)-dione]
